Patent US4118561A, “7-(Substituted)-7H-pyrrolo[3,2-f]quinazoline-1,3-diamines” (priority 1977, dated 1978)
Values after ≈ are worked out from the molar mass of the structure shown. Like-named read-outs stand apart in the source and are kept apart here.

How the values were obtained:
[1] = system: K. pneumoniae 10031; assay: In vitro antibacterial activity (MIC), K. pneumoniae 10031; conditions: Klebsiella pneumoniae, 10031, 18 h
[2] = system: P. vulgaris 6896; assay: In vitro antibacterial activity (MIC), P. vulgaris 6896; conditions: Proteus vulgaris, 6896, 18 h
[3] = system: S. paratyphi 11737; assay: In vitro antibacterial activity (MIC), S. paratyphi 11737; type: cell-based; conditions: Salmonella enterica, 18 h
[4] = system: S. aureus Smith; assay: In vitro antibacterial activity (MIC), S. aureus Smith; conditions: Staphylococcus aureus, 18 h
[5] = system: S. aureus 53-180; assay: In vitro antibacterial activity (MIC), S. aureus 53-180; conditions: Staphylococcus aureus, 53180, 18 h
[6] = system: lymphocytic leukemia P-388; assay: Activity in mice against lymphocytic leukemia P-388; type: in vivo; conditions: Mus musculus, P388, ip, mice, I.P., read-out: T/C
[7] = system: E. coli 9637; assay: In vitro antibacterial activity (MIC), E. coli 9637; conditions: Escherichia coli, 9637, 18 h
[8] = Antimalarial blood schizonticidal test in mice; type: in vivo, Plasmodium berghei (infected ICR/HA Swiss mice); set-up: ΔMST (increase in mean survival time): unit: days; conditions: mouse, in vivo, sc, single dose, read-out: Highest Non-Lethal Dose
From the text: (§1) In addition, the invention provides compounds which have antimalarial activity in vivo as evidenced by a standard blood schizonticidal test in mice infected with Plasmodium berghei KBG 173.
(§2) Utilizing young ICR/HA Swiss mice and a standard inoculum of Plasmodium berghei KBG 173, it is possible to produce a uniform disease fatal to 100% of untreated animals within 6 to 8 days with a mean survival time of 6.2 days. Test animals weigh from 18 to 22 grams but weight variations in any given experimental or control group are confined to 2-3 grams. All animals in any given test are approximately of the same age. Animals on test are housed in metal-topped plastic cages, given a standard laboratory diet and water ad libitum.
(§3) Test animals receive an intraperitoneal injection of 0.5 ml. of 1:100 dilution of heparinized heart's blood with a minimum of 90% parasitized cells (4 × 10^7 cells), drawn from donor mice infected one week earlier with Plasmodium berghei. The donor strain is maintained by weekly passages in separate groups of mice inoculated with a 0.5 ml. of 1:500 dilution of heparinized heart's blood.
(§4) Test compounds are administered after dissolution or suspension in peanut oil. A single dose is given subcutaneously 72 hours after the mice are infected with Plasmodium berghei. At this time a 10-15 percent parasitemia has developed; the disease is well established but has not produced sufficient debility to alter the response of the host to toxic effects of the drug on test. Since treatment is withheld for three days to permit the infection to become well established and death occurs in untreated controls within 6-8 days, it is felt that this system presents a candidate compound with the maximum challenge. In order to check factors such as changes in the infectivity of Plasmodium berghei or in the susceptibility of the host or to detect technical errors, a group of infected animals treated with pyrimethamine at dose levels producing definite increases in survival time is included in a positive control in every experiment.
(§5) In each experiment test compounds are administered in graded dosages. […] However, if an active drug is toxic for the host, its toxicity may become a limiting factor; continued increases in dose levels also increase the toxic effects and may result in the diminution of survival times. Deaths prior to the sixth day, when untreated controls begin to die, are regarded as nonparasitic and become the basis for toxicity evaluations. […] In calculating mean survival time, toxic deaths and 60-day survivors are not included.
(§6) Compounds are considered active which produce a cure in at least one test animal or which produce significant increases in mean survival times of the treated animals as compared with the mean survival times of untreated controls, provided that no drug related deaths (toxicity) are noted at the active dose.

[9] = system: Plasmodium berghei KBG 173; assay: Antimalarial blood schizonticidal test in mice; type: in vivo, Plasmodium berghei (infected ICR/HA Swiss mice); set-up: ΔMST (increase in mean survival time): unit: days; conditions: s.c.; for ED100 / minimal effective dose: Plasmodium berghei, sc, single dose; for ED100: read-out: Lowest Dose Curing All Mice; for minimal effective dose: read-out: Min. Curing Dose; for Cure/Treat at Min. Curing Dose: at the Min. Curing Dose
From the text: as §1, §2, §3, §4, §5, §6

[10] = system: N. catarrhalis 8193; assay: In vitro antibacterial activity (MIC), N. catarrhalis 8193; conditions: 18 h
[11] = alive on day 14 considered cured, no 60-day data
[12] = 336 h, alive on day 14 considered cured, no 60-day data
[13] = alive on day 14 considered cured
[14] = infected mice, highest dose with no deaths for any reason

Structure (SMILES): Nc1nc(N)c2c(ccc3c2ccn3Cc2ccsc2)n1 [Example 41]
- MIC [1]: 0.061 µg/mL (≈ 0.207 µM)
- MIC [2]: 1.95 µg/mL (≈ 6.6 µM)
- MIC [3]: 0.976 µg/mL (≈ 3.3 µM)
- MIC [4]: 0.976 µg/mL (≈ 3.3 µM)
- MIC [5]: 0.976 µg/mL (≈ 3.3 µM)
- response vs control in vivo at 10 mg/kg [6]: 147%
- MIC [7]: 0.244 µg/mL (≈ 0.826 µM)
- MTD [8, 11]: 320 mg/kg
- ED100 [9, 12]: 160 mg/kg
- minimal effective dose [9, 12]: 20 mg/kg
- Cure/Treat at Min. Curing Dose [9, 13]: 3/5
- MIC [10]: 0.0152 µg/mL (≈ 0.0515 µM)

Structure (SMILES): CS(=O)(=O)c1ccc(Cn2ccc3c4c(N)nc(N)nc4ccc32)cc1 [Example 63, 7-[(4-Methylsulfonylphenyl)methyl]-7H-pyrrolo[3,2-f]quinazoline-1,3-diamine]
- MIC [1]: 0.122 µg/mL (≈ 0.332 µM)
- MIC [2]: 7.81 µg/mL (≈ 21.3 µM)
- MIC [3]: 0.976 µg/mL (≈ 2.66 µM)
- MIC [4]: 0.122 µg/mL (≈ 0.332 µM)
- MIC [5]: 0.122 µg/mL (≈ 0.332 µM)
- response vs control in vivo at 10 mg/kg [6]: 136%
- MIC [7]: 0.976 µg/mL (≈ 2.66 µM)
- minimal effective dose ([9]; 1440 h, 60-day survivors): 10 mg/kg
- Cure/Treat at Min. Curing Dose ([9]; 60-day survivors): 1/5
- ΔMST (increase in mean survival time) ([9]; dose 5 mg. per kg.): 6.5
- MIC [10]: 0.0152 µg/mL (≈ 0.0414 µM)

Structure (SMILES): Nc1nc(N)c2c(ccc3c2ccn3Cc2ccccc2C(F)(F)F)n1 [Example 11]
- MIC [1]: 0.122 µg/mL (≈ 0.341 µM)
- MIC [2]: 62.5 µg/mL (≈ 175 µM)
- MIC [3]: 3.9 µg/mL (≈ 10.9 µM)
- MIC [4]: 0.488 µg/mL (≈ 1.37 µM)
- MIC [5]: 0.244 µg/mL (≈ 0.683 µM)
- MIC [7]: 1.95 µg/mL (≈ 5.46 µM)
- MTD [8, 14]: 40 mg/kg
- ED100 ([9]; 1440 h, 60-day survivors): 10 mg/kg
- minimal effective dose ([9]; 1440 h, 60-day survivors): 1.25 mg/kg
- Cure/Treat at Min. Curing Dose ([9]; 60-day survivors): 1/5
- ΔMST (increase in mean survival time) ([9]; dose 0.63 mg. per kg.): 7.3
- MIC [10]: < 0.0009 µg/mL

Structure (SMILES): Nc1nc(N)c2c(ccc3c2ccn3Cc2ccncc2)n1 [Example 45]
- MIC [1]: 0.122 µg/mL (≈ 0.42 µM)
- MIC [2]: 0.488 µg/mL (≈ 1.68 µM)
- MIC [3]: 0.488 µg/mL (≈ 1.68 µM)
- MIC [4]: 0.122 µg/mL (≈ 0.42 µM)
- MIC [5]: 0.122 µg/mL (≈ 0.42 µM)
- response vs control in vivo at 15 mg/kg ([6]; 15 mg/kg): 142%
- MIC [7]: 0.244 µg/mL (≈ 0.84 µM)
- minimal effective dose ([9]; 1440 h, 60-day survivors): 80 mg/kg
- Cure/Treat at Min. Curing Dose ([9]; 60-day survivors): 3/5
- ΔMST (increase in mean survival time) ([9]; dose 40 mg. per kg.): 9.7
- MIC [10]: 0.0038 µg/mL (≈ 0.0131 µM)

Structure (SMILES): Nc1nc(N)c2c(ccc3c2ccn3Cc2cccc(Cl)c2)n1 [Example 7]
- MIC [1]: 0.976 µg/mL (≈ 3.01 µM)
- MIC [2]: 31.3 µg/mL (≈ 96.7 µM)
- MIC [3]: 31.3 µg/mL (≈ 96.7 µM)
- MIC [4]: 1.95 µg/mL (≈ 6.02 µM)
- MIC [5]: 0.976 µg/mL (≈ 3.01 µM)
- MIC [7]: 7.81 µg/mL (≈ 24.1 µM)
- MTD [8, 14]: 160 mg/kg
- ED100 ([9]; 1440 h, 60-day survivors): 10 mg/kg
- minimal effective dose ([9]; 1440 h, 60-day survivors): 2.5 mg/kg
- Cure/Treat at Min. Curing Dose ([9]; 60-day survivors): 2/5
- ΔMST (increase in mean survival time) ([9]; dose 1.25 mg. per kg.): 7.7
- MIC [10]: 0.244 µg/mL (≈ 0.754 µM)

Structure (SMILES): Nc1nc(N)c2c(ccc3c2ccn3Cc2c(Cl)cccc2Cl)n1 [Example 9]
- MIC [1]: 15.6 µg/mL (≈ 43.5 µM)
- MIC [2]: > 250 µg/mL
- MIC [3]: > 250 µg/mL
- MIC [4]: 250 µg/mL (≈ 698 µM)
- MIC [5]: 250 µg/mL (≈ 698 µM)
- MIC [7]: > 250 µg/mL
- MTD [8, 11]: 160 mg/kg
- ED100 [9, 12]: 40 mg/kg
- minimal effective dose [9, 12]: 5 mg/kg
- Cure/Treat at Min. Curing Dose [9, 13]: 1/5
- MIC [10]: 0.488 µg/mL (≈ 1.36 µM)

Structure (SMILES): Nc1nc(N)c2c(ccc3c2ccn3CCCc2ccccc2)n1 [Example 56]
- MIC [1]: 250 µg/mL (≈ 788 µM)
- MIC [2]: 250 µg/mL (≈ 788 µM)
- MIC [3]: 250 µg/mL (≈ 788 µM)
- MIC [4]: 250 µg/mL (≈ 788 µM)
- MIC [5]: 250 µg/mL (≈ 788 µM)
- MIC [7]: 250 µg/mL (≈ 788 µM)
- MTD ([8]; this is the highest dose tested): 640 mg/kg
- ED100 ([9]; 1440 h, 60-day survivors): 320 mg/kg
- minimal effective dose ([9]; 1440 h, 60-day survivors): 160 mg/kg
- Cure/Treat at Min. Curing Dose ([9]; 60-day survivors): 3/5
- ΔMST (increase in mean survival time) ([9]; dose 80 mg. per kg.): 10.7
- MIC [10]: 250 µg/mL (≈ 788 µM)

Structure (SMILES): Nc1nc(N)c2c(ccc3c2ccn3Cc2cccnc2)n1 [Example 44]
- MIC [1]: 0.122 µg/mL (≈ 0.42 µM)
- MIC [2]: 7.81 µg/mL (≈ 26.9 µM)
- MIC [3]: 0.488 µg/mL (≈ 1.68 µM)
- MIC [4]: 7.81 µg/mL (≈ 26.9 µM)
- MIC [5]: 0.976 µg/mL (≈ 3.36 µM)
- MIC [7]: 0.488 µg/mL (≈ 1.68 µM)
- MTD [8, 14]: 160 mg/kg
- ED100 ([9]; 1440 h, 60-day survivors): 160 mg/kg
- minimal effective dose ([9]; 1440 h, 60-day survivors): 80 mg/kg
- Cure/Treat at Min. Curing Dose ([9]; 60-day survivors): 3/5
- ΔMST (increase in mean survival time) ([9]; dose 40 mg. per kg.): 8.3
- MIC [10]: < 0.0009 µg/mL
